According to paper PMC11822212, “High-throughput screening identifies Aurora kinase B as a critical therapeutic target for Merkel cell carcinoma” (Nature Communications, 2025):
Like-named read-outs stand apart in the source and are kept apart here.

Columns and labels:
[1] = system: MCC13 cells (VN-MCC); assay: qHTS cell viability (CellTiter-Glo, 72 h; primary and follow-up small molecule screen); type: cell-based, human
[2] = system: MCC26 cells (VN-MCC); assay: as above; type: cell-based, human
[3] = system: UISO cells (VN-MCC); assay: as above; type: cell-based, human
[4] = system: WAGA cells (VP-MCC); assay: as above; type: cell-based, human
[5] = system: MKL-1 cells (VP-MCC); assay: as above; type: cell-based, human
[6] = system: MKL-2 cells (VP-MCC); assay: as above; type: cell-based, human
[7] = system: HACAT cells; assay: qHTS cell viability (CellTiter-Glo, 72 h; primary screen), control cell line; type: cell-based, human
[8] = system: HEK293T cells; assay: as above; type: cell-based, human
[9] = system: NIH-3T3 cells; assay: as above; type: cell-based, mouse
[10] = system: CRL-7250 cells; assay: as above; type: cell-based
[11] = system: MCC cell lines (WAGA, MKL-1, MKL-2, MCC13, MCC26, UISO); assay: qHTS cell viability, all six MCC cell lines as a group (mean AUC, MCC.avg); type: cell-based, human
[12] = system: VP-MCC cell lines (WAGA, MKL-1, MKL-2); assay: qHTS cell viability, VP-MCC cell lines as a group (mean AUC, VP.MCC.avg); type: cell-based, human
[13] = system: VN-MCC cell lines (MCC13, MCC26, UISO); assay: qHTS cell viability, VN-MCC cell lines as a group (mean AUC, VN.MCC.avg); type: cell-based, human
[14] = system: control cell lines (HACAT, HEK293T, CRL-7250, NIH-3T3); assay: qHTS cell viability, control cell lines as a group (mean AUC, Control.avg); type: cell-based
[15] = system: six MCC cell lines and four control cell lines; assay: qHTS cell viability, all 10 cell lines screened; type: cell-based
[16] = MIPE library, 11-point DRC, sheet S2E
[17] = MIPE library, 11-point DRC, control cell line, sheet S2E

CCC(=O)OC1(c2ccccc2)CCN(C)CC1.Cl
MCC13_AUC [1]: 464.627 | MCC26_AUC [2]: 456.799 | UISO_AUC [3]: 451.795 | WAGA_AUC [4]: 438.281 | MKL1_AUC [5]: 398.305 | MKL2_AUC [6]: 404.215 | HACAT_AUC [7]: 483.91 | HEK293T_AUC [8]: 479.823 | NIH3T3_AUC [9]: 479.714 | CRL7250_AUC [10]: 443.177 | MCC_Avg_AUC [11]: 435.67 | Control-VP-MCC [12]: 58.056 | VP-MCC_Avg_AUC [12]: 413.6 | Control-VN-MCC [13]: 13.9158 | VN-MCC_Avg_AUC [13]: 457.741 | Control_Avg_AUC [14]: 471.656 | Control-MCC [15]: 35.9859

CC(O)C(=O)O.CCOc1ccc2nc3cc(N)ccc3c(N)c2c1.O [Ethacridine lactate hydrate]
MCC13_AUC [1]: 439.497 | MCC26_AUC [2]: 472.196 | UISO_AUC [3]: 374.889 | WAGA_AUC [4]: 335.85 | MKL1_AUC [5]: 391.16 | MKL2_AUC [6]: 356.151 | HACAT_AUC [7]: 492.059 | HEK293T_AUC [8]: 374.537 | NIH3T3_AUC [9]: 456.142 | CRL7250_AUC [10]: 429.434 | MCC_Avg_AUC [11]: 394.957 | Control-VP-MCC [12]: 76.9894 | VP-MCC_Avg_AUC [12]: 361.054 | Control-VN-MCC [13]: 9.1824 | VN-MCC_Avg_AUC [13]: 428.861 | Control_Avg_AUC [14]: 438.043 | Control-MCC [15]: 43.0859

Cl.Cl.Fc1ccc(C(OCCN2CCN(CCCc3ccccc3)CC2)c2ccc(F)cc2)cc1 [GBR 12909 dihydrochloride]
MCC13_AUC ([1]; NPC library, qHTS dose-response AUC, MCC13): 436.239 | MCC26_AUC ([2]; NPC library, qHTS dose-response AUC, MCC26): 404.643 | UISO_AUC ([3]; NPC library, qHTS dose-response AUC, UISO): 384.769 | WAGA_AUC ([4]; NPC library, qHTS dose-response AUC, WAGA): 399.59 | MKL1_AUC ([5]; NPC library, qHTS dose-response AUC, MKL1): 403.123 | MKL2_AUC ([6]; NPC library, qHTS dose-response AUC, MKL2): 375.344 | HACAT_AUC ([7]; NPC library, qHTS dose-response AUC, HACAT control): 461.158 | HEK293T_AUC ([8]; NPC library, qHTS dose-response AUC, HEK293T control): 425.616 | NIH3T3_AUC ([9]; NPC library, qHTS dose-response AUC, NIH3T3 control): 436.091 | CRL7250_AUC ([10]; NPC library, qHTS dose-response AUC, CRL7250 control): 454.771 | MCC_Avg_AUC ([11]; NPC library, mean AUC of six MCC cell lines): 400.618 | VP-MCC_Avg_AUC ([12]; NPC library, mean AUC of VP-MCC cell lines): 392.686 | Control-VP-MCC ([12]; NPC library, therapeutic window: Control avg AUC minus VP-MCC avg AUC): 51.7231 | VN-MCC_Avg_AUC ([13]; NPC library, mean AUC of VN-MCC cell lines): 408.55 | Control-VN-MCC ([13]; NPC library, therapeutic window: Control avg AUC minus VN-MCC avg AUC): 35.8586 | Control_Avg_AUC ([14]; NPC library, mean AUC of control cell lines): 444.409 | Control-MCC ([15]; NPC library, therapeutic window: Control avg AUC minus MCC avg AUC): 43.7909

CC1=C(/C=C/C(C)=C/C=C/C(C)=C\C(=O)O)C(C)(C)CCC1 [Isotretinoin]
MCC13_AUC [1, 16]: 457.493 | MCC13_AUC ([1]; area under the dose-response curve, MCC13 cells, AUC<450 = reduced viability): 457.493 | MCC26_AUC [2, 16]: 479.481 | MCC26_AUC ([2]; area under the dose-response curve, MCC26 cells, AUC<450 = reduced viability): 479.481 | UISO_AUC [3, 16]: 453.203 | UISO_AUC ([3]; area under the dose-response curve, UISO cells, AUC<450 = reduced viability): 453.203 | WAGA_AUC [4, 16]: 423.315 | WAGA_AUC ([4]; area under the dose-response curve, WAGA cells, AUC<450 = reduced viability): 423.315 | MKL1_AUC [5, 16]: 418.758 | MKL1_AUC ([5]; area under the dose-response curve, MKL-1 cells, AUC<450 = reduced viability): 418.758 | MKL2_AUC [6, 16]: 402.656 | MKL2_AUC ([6]; area under the dose-response curve, MKL-2 cells, AUC<450 = reduced viability): 402.656 | HACAT_AUC [7, 17]: 476.199 | HACAT_AUC ([7]; area under the dose-response curve, HACAT control cells, AUC<450 = reduced viability): 476.199 | HEK293T_AUC [8, 17]: 469.58 | HEK293T_AUC ([8]; area under the dose-response curve, HEK293T control cells, AUC<450 = reduced viability): 469.58 | NIH3T3_AUC [9, 17]: 458.083 | NIH3T3_AUC ([9]; area under the dose-response curve, NIH3T3 control cells, AUC<450 = reduced viability): 458.083 | CRL7250_AUC [10, 17]: 458.179 | CRL7250_AUC ([10]; area under the dose-response curve, CRL7250 control cells, AUC<450 = reduced viability): 458.179 | MCC_Avg_AUC ([11]; MIPE library, mean AUC of six MCC cell lines, sheet S2E): 439.151 | Control-VP-MCC ([12]; MIPE library, Control AUC minus VP-MCC AUC (therapeutic window), sheet S2E): 50.6007 | VP-MCC_Avg_AUC ([12]; MIPE library, mean AUC of VP-MCC cell lines, sheet S2E): 414.91 | Control-VN-MCC ([13]; MIPE library, Control AUC minus VN-MCC AUC (therapeutic window), sheet S2E): 2.118 | VN-MCC_Avg_AUC ([13]; MIPE library, mean AUC of VN-MCC cell lines, sheet S2E): 463.393 | Control_Avg_AUC ([14]; MIPE library, mean AUC of control cell lines, sheet S2E): 465.51 | Control-MCC ([15]; MIPE library, Control AUC minus MCC AUC (therapeutic window), sheet S2E): 26.3592

C[C@H](CN1CCOCC1)C(C(=O)N1CCCC1)(c1ccccc1)c1ccccc1.O=C(O)C(O)C(O)C(=O)O [Dextromoramide tartrate]
MCC13_AUC [1]: 446.289 | MCC26_AUC [2]: 445.292 | UISO_AUC [3]: 445.259 | WAGA_AUC [4]: 399.942 | MKL1_AUC [5]: 389.502 | MKL2_AUC [6]: 383.165 | HACAT_AUC [7]: 472.266 | HEK293T_AUC [8]: 429.542 | NIH3T3_AUC [9]: 477.478 | CRL7250_AUC [10]: 471.896 | MCC_Avg_AUC [11]: 418.242 | Control-VP-MCC [12]: 71.9259 | VP-MCC_Avg_AUC [12]: 390.87 | Control-VN-MCC [13]: 17.1819 | VN-MCC_Avg_AUC [13]: 445.614 | Control_Avg_AUC [14]: 462.795 | Control-MCC [15]: 44.5539
